Reference: article PMC10485906, “Development of a Dihydroquinoline–Pyrazoline GluN2C/2D-Selective Negative Allosteric Modulator of the N-Methyl-D-aspartate Receptor” (ACS Chemical Neuroscience, 2023)
“And” between values parts separate entries of the source, which are not always exact repeats. Equal values may be shown once. Read-outs that look alike come from different tables or passages of the source. Marks after values point to notes of the source that are not given here.

How the values were obtained:
[1] = Brain homogenate tissue binding and stability (RED device); type: in vitro ADME, mouse; settings: for fraction unbound at 4 h, 5 µM / remaining at 4 h, 5 µM: C57BL/6, mouse, brain homogenate (4 times diluted); for remaining at 4 h, 5 µM: pH 7.4, starting concentration 5 μM; for recovery at 4 h, 5 μM: C57BL/6, pH 7.4, mouse brain tissue binding; for Average 2i Concentration, Buffer_Mice: buffer chamber after 4 h dialysis; for Average 2i Concentration, Brain_St_0Hr_Mice / Average 2i Concentration, Brain_St_4Hr_Mice: brain homogenate stability sample; for Average 2i Concentration, Brain_St_0Hr_Mice: 0 h; for Average 2i Concentration, Brain_Mice: brain homogenate chamber after 4 h dialysis
Description: Carbamazepine (Apin Chemicals) served as a positive control for brain tissue binding. Test compounds and the positive control were initially dissolved in DMSO to make 1 mM stock solutions. […] A rapid equilibrium dialysis (RED) device (Thermo Scientific) containing a dialysis membrane with a molecular weight cutoff of 8000 Da was used to assess tissue binding and metabolic stability. […] The test compounds and positive control (200 μL of 5 μM solution) were added to the red chamber of the dialysis insert, while the white chamber was filled with dialysis buffer (350 μL). The RED device was then sealed with an adhesive film and incubated at 37 °C with shaking (300 rpm) for 4 h. For the initial time point (t = 0 min), 50 μL aliquots of test compounds and the positive control were added to 96-deep well plates (0.7 mL per well) and quenched with 400 μL of MeCN. Following dialysis, another 50 μL aliquot of the tested samples was removed from each well (brain homogenate and buffer) and diluted with an equal volume of the opposite matrix to nullify any matrix effects. […] The supernatant (100 μL) was subsequently transferred to 96-deep well plates for LC-MS/MS analysis. Prodrug metabolism and 2i concentrations were determined by fit-for-purpose LC-MS/MS methods on a nine-point calibration curve ranging from 0.12 to 7.5 μM.

[2] = target: T1, GluN1/GluN2A (Rattus norvegicus, UniProt P35439+Q00959); experiment: Two-electrode voltage-clamp recordings, Xenopus laevis oocytes, GluN1/GluN2A; type: cell-based; settings: 100 μM glutamate, 30 μM glycine; for IC50: read-out: IC50 GluN2A [95% CI]; for remaining activity at 30 µM: 30 μM test compound, mean ± SEM, read-out: I 30 μM / I control GluN2A
T1 construct: expressed in transfected cells; host or cells: Xenopus laevis oocytes (cRNA injection)
Description: (§1) All target compounds were evaluated for NMDAR antagonism using two-electrode voltage-clamp recordings from Xenopus laevis oocytes coexpressing recombinant GluN1 and GluN2A-D subunits (Table 1).[32],[42],[33] All analogues were assessed as either a racemic (2b, 2e–2r) or diastereomeric (2d) mixture to simplify purification and streamline in vitro analysis. […] Moreover, as illustrated by the significant loss of NMDAR activity observed with nitrile 2e, the DQP allosteric site necessitated an H-bond donor/acceptor relationship at the carboxylate position. […] The loss of NMDAR activity observed with the trifluoro analogue 2j (Table S1) reinforced the necessity for an H-bond donor/acceptor relationship to maintain allosteric binding and established that fluorine substitution alone is ineffective. […] A single methyl substitution of the amide in compound 2q improved selectivity against GluN2A and had similar potency as 2a, whereas dual methyl substitution reduced potency (2r). We expect that this is likely due to the ability of the […] of the amide to accept hydrogen bonds while the amide can readily donate a proton.
(§2) Unfertilized Xenopus laevis oocytes were obtained from Ecocyte (Austin, TX), or ovaries were purchased from Xenopus 1 (Dexter, MI) and oocytes prepared as previously described.[42],[47] Two-electrode voltage-clamp recordings were performed on oocytes expressing recombinant rat GluN1/GluN2A, GluN1/GluN2B, GluN1/GluN2C, or GluN1/GluN2D. cDNAs for rat GluN1-1a (referred to as GluN1; NCBI Reference Sequence NM_017010.2), GluN2A (NM_012573.4), GluN2B (NM_012574.1), GluN2C (NM_012575.3), and GluN2D (NM_022797.2) were provided by Dr. S. Heinemann from the Salk Institute, Dr. S. Nakanishi from Kyoto University, and Dr. P. Seeburg from the University of Heidelberg. Oocyte isolation, cRNA synthesis, and cRNA injections were performed as previously described.[32],[33],[47] Briefly, Xenopus laevis oocytes were injected with 5–10 ng of cRNA in RNase-free water with the GluN1:GluN2 ratio ranging from 1:1 to 1:5. Oocytes were incubated at 15–19 °C in Barth’s solution consisting of (in mM) 88 NaCl, 1 KCl, 2.4 NaHCO3, 10 HEPES, 0.82 MgSO4, 0.33 Ca(NO3)2, and 0.41 CaCl2 supplemented with 100 μg/mL gentamycin, 40 μg/mL streptomycin, and 50 μg/mL penicillin. Recordings were performed 2–4 days after injection with extracellular recording solution containing (in mM) 90 NaCl, 1 KCl, 10 HEPES, 0.5 BaCl2, and 0.01 EDTA at pH 7.4 adjusted with NaOH. To prevent a gradual increase in current response over the course of the experiment, some oocytes expressing GluN1/GluN2A were injected with 20–50 nL of 2–50 mM K-BAPTA. Concentration–response curves for test compounds were generated by applying a maximally effective concentration of glutamate (100 μM) and glycine (30 μM), followed by glutamate and glycine with variable concentrations of test compounds up to 30 μM. The test compounds were prepared as 20 mM stock solutions in DMSO and diluted to the final concentration in recording solution. The DMSO content was 0.05–0.5% (v/v). […] Methods for off-target analysis are given in the Supporting Information.
(§3) Confidence intervals were determined for the log(IC50). The time course of relaxation during inhibitor application or deactivation following rapid removal of NMDA or glutamate was fitted by the equation [drawing 5] 2

[3] = target: T2, GluN1/GluN2A (Rattus norvegicus, UniProt Q00959); experiment: as above; type: cell-based; settings: mean ± SEM; for I3 μM/Icontrol GluN2A: tested at 3 μM; for I3 μM/Icontrol GluN2A / I / I control GluN2A: 100 μM glutamate, 30 μM glycine; for I / I control GluN2A: tested at 10 μM (footnote b)
T2 construct: expressed in transfected cells; host or cells: Xenopus laevis oocytes (cRNA injection)
Description: as §1, §2, §3

[4] = target: GluN1/GluN2C (Rattus norvegicus, UniProt P35439+Q00961); experiment: Two-electrode voltage-clamp recordings, Xenopus laevis oocytes, GluN1/GluN2C; type: cell-based; parameters: GluN2B (NM_012574.1), GluN2C (NM_012575.3), and GluN2D (NM_022797.2) were provided by; expressed in transfected cells; host or cells: Xenopus laevis oocytes (cRNA injection); settings: 100 μM glutamate, 30 μM glycine; for IC50: read-out: IC50 GluN2C [95% CI]; for remaining activity at 30 µM: 30 μM test compound, mean ± SEM, read-out: I 30 μM / I control GluN2C
Description: as §1, §2, §3

[5] = target: GluN1/GluN2D (Rattus norvegicus, UniProt P35439+Q62645); experiment: Two-electrode voltage-clamp recordings, Xenopus laevis oocytes, GluN1/GluN2D; type: cell-based; parameters: GluN2B (NM_012574.1), GluN2C (NM_012575.3), and GluN2D (NM_022797.2) were provided by; expressed in transfected cells; host or cells: Xenopus laevis oocytes (cRNA injection); settings: 100 μM glutamate, 30 μM glycine; for IC50: read-out: IC50 GluN2D [95% CI]; for remaining activity at 30 µM: 30 μM test compound, mean ± SEM, read-out: I 30 μM / I control GluN2D
Description: as §1, §2, §3

[6] = pH 7.4, mouse brain tissue binding (free fraction in brain), read-out: % Unbound
[7] = pH 7.4, mouse brain tissue binding, RED, 4 h, read-out: % Bound Mean ± SD (converted)
[8] = pH 7.4, mouse brain tissue binding, RED, 4 h, read-out: % Bound R1 (converted)
[9] = pH 7.4, mouse brain tissue binding, RED, 4 h, read-out: % Bound R2 (converted)

Sequence of GluN1/GluN2D (Q62645 28-1323, other chains not shown): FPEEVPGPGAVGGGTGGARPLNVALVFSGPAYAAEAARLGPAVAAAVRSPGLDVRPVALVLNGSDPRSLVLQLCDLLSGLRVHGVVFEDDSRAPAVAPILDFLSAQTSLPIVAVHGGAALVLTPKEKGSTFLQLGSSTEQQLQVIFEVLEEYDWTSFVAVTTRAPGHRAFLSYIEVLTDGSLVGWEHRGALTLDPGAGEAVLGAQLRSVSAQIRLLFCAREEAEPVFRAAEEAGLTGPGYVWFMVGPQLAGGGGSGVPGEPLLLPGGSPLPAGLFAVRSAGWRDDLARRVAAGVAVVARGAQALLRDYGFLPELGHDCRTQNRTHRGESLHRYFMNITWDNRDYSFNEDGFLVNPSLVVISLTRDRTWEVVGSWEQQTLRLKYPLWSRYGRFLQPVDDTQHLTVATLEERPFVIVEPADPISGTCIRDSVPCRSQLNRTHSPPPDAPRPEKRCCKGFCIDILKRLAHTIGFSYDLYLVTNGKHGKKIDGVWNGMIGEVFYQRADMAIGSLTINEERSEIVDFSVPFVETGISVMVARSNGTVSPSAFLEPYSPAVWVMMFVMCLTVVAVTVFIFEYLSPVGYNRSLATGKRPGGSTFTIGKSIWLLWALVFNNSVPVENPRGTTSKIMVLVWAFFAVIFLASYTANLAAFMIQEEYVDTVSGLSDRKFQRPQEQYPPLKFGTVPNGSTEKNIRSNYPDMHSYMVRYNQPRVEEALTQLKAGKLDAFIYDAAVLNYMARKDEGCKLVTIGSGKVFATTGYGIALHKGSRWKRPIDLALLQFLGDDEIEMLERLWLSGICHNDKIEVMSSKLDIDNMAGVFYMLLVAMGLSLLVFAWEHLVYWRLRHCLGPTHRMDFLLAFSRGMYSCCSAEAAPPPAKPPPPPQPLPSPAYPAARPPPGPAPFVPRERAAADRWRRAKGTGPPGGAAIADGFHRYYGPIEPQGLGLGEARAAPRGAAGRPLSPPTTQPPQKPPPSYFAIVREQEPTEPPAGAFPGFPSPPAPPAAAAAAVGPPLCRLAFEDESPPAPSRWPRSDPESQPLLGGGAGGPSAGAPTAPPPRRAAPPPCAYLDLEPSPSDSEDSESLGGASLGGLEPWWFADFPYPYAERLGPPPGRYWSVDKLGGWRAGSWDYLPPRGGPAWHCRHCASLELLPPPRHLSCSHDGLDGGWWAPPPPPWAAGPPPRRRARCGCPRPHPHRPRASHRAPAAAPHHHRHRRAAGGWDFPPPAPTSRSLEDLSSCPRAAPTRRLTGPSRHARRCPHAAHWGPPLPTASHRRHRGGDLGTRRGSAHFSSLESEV
Sequence of GluN1/GluN2C (Q00961 20-1237, other chains not shown): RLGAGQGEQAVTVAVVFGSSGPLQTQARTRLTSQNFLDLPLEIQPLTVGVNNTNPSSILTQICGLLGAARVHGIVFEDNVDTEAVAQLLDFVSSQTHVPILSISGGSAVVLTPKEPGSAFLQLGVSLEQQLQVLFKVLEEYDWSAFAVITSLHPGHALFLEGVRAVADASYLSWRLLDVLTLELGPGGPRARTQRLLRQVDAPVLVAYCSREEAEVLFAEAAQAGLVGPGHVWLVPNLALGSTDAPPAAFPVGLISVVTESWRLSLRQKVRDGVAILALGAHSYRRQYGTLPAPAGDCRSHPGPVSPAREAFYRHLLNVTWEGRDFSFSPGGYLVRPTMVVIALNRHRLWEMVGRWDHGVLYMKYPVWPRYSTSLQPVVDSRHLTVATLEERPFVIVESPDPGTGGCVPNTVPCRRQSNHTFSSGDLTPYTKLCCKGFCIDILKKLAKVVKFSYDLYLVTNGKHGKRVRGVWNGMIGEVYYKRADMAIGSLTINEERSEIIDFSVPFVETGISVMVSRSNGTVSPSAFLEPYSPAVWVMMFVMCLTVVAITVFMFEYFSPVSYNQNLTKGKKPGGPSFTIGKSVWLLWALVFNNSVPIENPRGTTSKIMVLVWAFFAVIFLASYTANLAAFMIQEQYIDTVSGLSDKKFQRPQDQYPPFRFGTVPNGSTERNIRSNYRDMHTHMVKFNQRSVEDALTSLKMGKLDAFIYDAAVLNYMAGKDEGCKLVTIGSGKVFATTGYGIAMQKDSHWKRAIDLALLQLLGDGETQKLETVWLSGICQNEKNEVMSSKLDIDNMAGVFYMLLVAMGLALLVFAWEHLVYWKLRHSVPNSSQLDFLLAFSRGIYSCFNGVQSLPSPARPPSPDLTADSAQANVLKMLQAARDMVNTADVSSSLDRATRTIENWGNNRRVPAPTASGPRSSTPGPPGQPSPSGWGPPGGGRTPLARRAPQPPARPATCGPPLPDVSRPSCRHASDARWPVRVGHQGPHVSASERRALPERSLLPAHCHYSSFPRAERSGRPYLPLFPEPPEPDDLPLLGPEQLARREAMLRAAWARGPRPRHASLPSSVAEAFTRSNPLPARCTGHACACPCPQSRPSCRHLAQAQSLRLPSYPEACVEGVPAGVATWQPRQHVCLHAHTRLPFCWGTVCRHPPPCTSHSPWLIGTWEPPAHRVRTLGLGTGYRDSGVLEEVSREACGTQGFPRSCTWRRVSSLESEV
T2 sequence (Q00959 23-1464, other chains not shown): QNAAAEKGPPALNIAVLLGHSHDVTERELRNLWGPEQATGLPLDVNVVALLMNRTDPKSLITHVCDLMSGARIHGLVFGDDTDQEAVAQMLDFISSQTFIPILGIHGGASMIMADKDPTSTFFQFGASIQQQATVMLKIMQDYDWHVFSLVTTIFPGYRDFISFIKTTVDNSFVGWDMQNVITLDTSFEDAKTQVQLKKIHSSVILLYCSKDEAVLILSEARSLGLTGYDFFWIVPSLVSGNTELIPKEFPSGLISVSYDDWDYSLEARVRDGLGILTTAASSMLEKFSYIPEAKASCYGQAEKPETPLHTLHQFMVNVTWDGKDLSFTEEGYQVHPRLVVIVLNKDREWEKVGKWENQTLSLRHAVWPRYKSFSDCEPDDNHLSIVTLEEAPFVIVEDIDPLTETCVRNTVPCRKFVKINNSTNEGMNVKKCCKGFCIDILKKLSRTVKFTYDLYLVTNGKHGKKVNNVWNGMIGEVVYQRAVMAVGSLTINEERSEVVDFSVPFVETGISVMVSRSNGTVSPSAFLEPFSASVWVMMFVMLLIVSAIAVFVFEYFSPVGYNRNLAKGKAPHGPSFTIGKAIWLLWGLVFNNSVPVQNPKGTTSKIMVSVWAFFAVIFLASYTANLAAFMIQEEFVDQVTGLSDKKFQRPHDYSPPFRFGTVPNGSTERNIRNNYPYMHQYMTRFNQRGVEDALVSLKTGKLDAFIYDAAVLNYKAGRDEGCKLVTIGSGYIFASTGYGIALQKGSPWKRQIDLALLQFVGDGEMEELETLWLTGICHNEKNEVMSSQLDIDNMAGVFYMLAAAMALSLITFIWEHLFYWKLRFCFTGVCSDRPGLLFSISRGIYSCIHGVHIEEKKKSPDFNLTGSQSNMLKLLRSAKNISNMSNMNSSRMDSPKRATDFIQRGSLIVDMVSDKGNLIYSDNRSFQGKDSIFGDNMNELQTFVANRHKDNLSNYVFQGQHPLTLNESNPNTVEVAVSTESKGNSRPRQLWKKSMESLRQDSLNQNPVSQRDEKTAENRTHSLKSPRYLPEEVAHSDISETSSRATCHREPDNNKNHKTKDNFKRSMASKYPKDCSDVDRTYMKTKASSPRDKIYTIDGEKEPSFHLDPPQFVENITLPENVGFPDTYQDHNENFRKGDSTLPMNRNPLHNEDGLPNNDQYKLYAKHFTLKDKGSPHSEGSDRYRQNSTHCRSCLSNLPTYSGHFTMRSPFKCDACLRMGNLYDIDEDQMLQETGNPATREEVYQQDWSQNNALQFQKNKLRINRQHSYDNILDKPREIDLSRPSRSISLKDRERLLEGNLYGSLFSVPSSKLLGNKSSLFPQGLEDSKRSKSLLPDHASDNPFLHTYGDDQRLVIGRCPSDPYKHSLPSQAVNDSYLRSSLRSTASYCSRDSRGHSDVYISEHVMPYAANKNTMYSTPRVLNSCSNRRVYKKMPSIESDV

| SMILES | remaining at 4 h, 5 µM ([1]; 4 h) [%] | recovery at 4 h, 5 μM ([1]; RED, 4 h) [%] | IC50 [2] [nM] | IC50 [4] [nM] | IC50 [5] [nM] | remaining activity at 30 µM [2] [%] | Average 2i Concentration, Buffer_Mice [1] | remaining activity at 30 µM [4] [%] | remaining activity at 30 µM [5] [%] | Average 2i Concentration, Brain_St_0Hr_Mice [1] | further results |
| --- | --- | --- | --- | --- | --- | --- | --- | --- | --- | --- | --- |
| O=C(O)CCC(=O)N1N=C(c2c(-c3ccc(Cl)cc3)c3ccccc3[nH]c2=O)CC1c1ccc(Cl)cc1 (centres unmarked) [2a] | 94 | 100 |  |  |  |  |  |  |  |  | fraction unbound at 4 h, 5 µM [1, 6]: 0.002; fraction unbound at 4 h, 5 µM [1, 7]: 0.002; fraction unbound at 4 h, 5 µM [1, 8]: 0.001; fraction unbound at 4 h, 5 µM [1, 9]: 0.002; fraction unbound at 4 h, 5 µM ([1]; pH 7.4, mouse brain tissue binding, read-out: fu): 0.002 |
| O=C(O)CC(F)(F)C(=O)N1N=C(c2c(-c3ccc(Cl)cc3)c3ccccc3[nH]c2=O)CC1c1ccc(Cl)cc1 (centres unmarked) [2i] | 105 | 57 | 5600 | 350 | 130 |  |  |  |  |  | I3 μM/Icontrol GluN2A [3]: 61 ± 2.4% and 61 ± 2.4 ^b (2,10) %; I3 μM/Icontrol GluN2A ([3]; listed as racemic 2i): 61 ± 2.4 (2, 10) %; fraction unbound at 4 h, 5 µM [1, 6]: < 0.001; fraction unbound at 4 h, 5 µM [1, 7]: < 0.001; fraction unbound at 4 h, 5 µM [1, 8]: < 0.001; fraction unbound at 4 h, 5 µM [1, 9]: < 0.001 |
| NC(=O)CC(F)(F)C(=O)N1N=C(c2c(-c3ccc(Cl)cc3)c3ccccc3[nH]c2=O)CC1c1ccc(Cl)cc1 (centres unmarked) [2k] | 44 | 41 | 5800 | 380 | 240 |  |  |  |  |  | I3 μM/Icontrol GluN2A [3]: 35 ± 6.5 ^b (3,9) %; metabolized in brain homogenate (% of prodrug) ([1]; after 4 h): 56% |
| CCOC(=O)CC(F)(F)C(=O)N1N=C(c2c(-c3ccc(Cl)cc3)c3ccccc3[nH]c2=O)CC1c1ccc(Cl)cc1 (centres unmarked) [2l] | 43 | 41 |  |  |  | 100 ± 3.2 | BLQ | 93 ± 0.7 | 87 ± 0.8 |  |  |
| CC(C)OC(=O)CC(F)(F)C(=O)N1N=C(c2c(-c3ccc(Cl)cc3)c3ccccc3[nH]c2=O)CC1c1ccc(Cl)cc1 (centres unmarked) [2m] | 56 | 51 |  |  |  | 97 ± 2.3 | BLQ | 90 ± 4.3 | 92 ± 3.1 |  |  |
| O=C(CC(F)(F)C(=O)N1N=C(c2c(-c3ccc(Cl)cc3)c3ccccc3[nH]c2=O)CC1c1ccc(Cl)cc1)OCC1CC1 (centres unmarked) [2n] | 25 | 29 |  |  |  | 100 ± 1.3 | BLQ | 93 ± 4.2 | 92 ± 2.7 | BLQ |  |
| CC(C)(C)COC(=O)CC(F)(F)C(=O)N1N=C(c2c(-c3ccc(Cl)cc3)c3ccccc3[nH]c2=O)CC1c1ccc(Cl)cc1 (centres unmarked) [2o] | 53 | 44 |  |  |  |  | BLQ |  |  | BLQ | I / I control GluN2A [3]: 97 ± 2.2% |
| O=C(CC(F)(F)C(=O)N1N=C(c2c(-c3ccc(Cl)cc3)c3ccccc3[nH]c2=O)CC1c1ccc(Cl)cc1)OCc1ccccc1 (centres unmarked) [2p] | 31 | 33 |  |  |  | 105 ± 0.72 | BLQ | 98 ± 0.95 | 96 ± 0.53 |  |  |
| CNC(=O)CC(F)(F)C(=O)N1N=C(c2c(-c3ccc(Cl)cc3)c3ccccc3[nH]c2=O)CC1c1ccc(Cl)cc1 (centres unmarked) [2q] | 33 | 30 | 37000 | 670 | 410 |  | BLQ |  |  | BLQ | I / I control GluN2A [3]: 83 ± 3.9 ^b (2,12) %; Average 2i Concentration, Brain_Mice [1]: BLQ; Average 2i Concentration, Brain_St_4Hr_Mice ([1]; 4 h): BLQ |
| CN(C)C(=O)CC(F)(F)C(=O)N1N=C(c2c(-c3ccc(Cl)cc3)c3ccccc3[nH]c2=O)CC1c1ccc(Cl)cc1 (centres unmarked) [2r] | 93 | 90 |  | 4100 | 1400 |  | BLQ |  |  | BLQ | I / I control GluN2A [3]: 70 ± 3.9 ^b (3,13) %; fraction unbound at 4 h, 5 µM [1, 6]: < 0.001; fraction unbound at 4 h, 5 µM [1, 7]: < 0.001; fraction unbound at 4 h, 5 µM [1, 8]: < 0.001; fraction unbound at 4 h, 5 µM [1, 9]: < 0.001; Average 2i Concentration, Brain_Mice [1]: BLQ; Average 2i Concentration, Brain_St_4Hr_Mice ([1]; 4 h): BLQ |
| O=C(O)CC(F)(F)C(=O)N1N=C(c2c(-c3ccc(Cl)cc3)c3ccccc3[nH]c2=O)C[C@H]1c1ccc(Cl)cc1 [(S)-(−)-2i] |  |  | 4700 | 61 | 35 |  |  |  |  |  | % control GluN1/GluN2A ([3]; 1 µM compound, 100 µM glutamate, 30 µM glycine): 74 ± 2.1%; I3 μM/Icontrol GluN2A [3]: 67 ± 2.0 (3, 14) % |
